Source: paper PMC3855394, “Bright Fluorescence Monitoring System Utilizing Zoanthus sp. Green Fluorescent Protein (ZsGreen) for Human G-Protein-Coupled Receptor Signaling in Microbial Yeast Cells” (PLoS ONE, 2013)

Tests used:
[1] = system: human neurotensin receptor subtype-1 (hNTSR1); experiment: GPCR signaling assay using membrane-tethered peptide ligands, hNTSR1; assay type: cell-based; conditions: strain IMFD-72ZsD, pGK421-NTSR1, flow cytometry; for fold increase in fluorescence intensity compared with α-factor: after 24 h cultivation, pH-adjusted SD medium, mean of 10,000 cells, n = 3; for rank order of ZsGreen fluorescence: membrane-tethered peptides, 24 h
Procedure: (§1) The cultured cells were washed and suspended in distilled water. The cell suspensions were observed using a BZ-9000 fluorescence microscope (Keyence, Osaka, Japan). Green fluorescence images were acquired with a 470/40 band-pass filter for excitation and a 535/50 band-pass filter for emission. Digital image intensities of green fluorescence were carried out, from four experiments each, with the ImageJ software (freely downloadable from the ImageJ website, http://rsbweb.nih.gov/ij/) and expressed as Integrated Density (IntDen) or its percent.
(§2) Flow cytometry measurements of green fluorescence followed previous procedures. In brief, GFP was detected using a BD FACSCanto II flow cytometer equipped with a 488-nm blue laser (Becton, Dickinson and Company, Franklin Lakes, NJ, USA); the data were analyzed using BD FACSDiva software (v5.0; Becton, Dickinson and Company). The GFP fluorescence signal was collected through a 530/30 nm band-pass filter and the GFP-A mean of 10,000 cells was defined as ‘green fluorescence intensity’.
GPCR signaling assays using membrane-tethered peptide ligands basically followed a previous procedure with some modifications. In brief, to assay signal activation from human GPCRs, yeast strains harboring the pGK421-based GPCR expression plasmids and pGK426-based peptide display plasmids were grown in SD medium (supplemented as needed) at 30 °C overnight, then the cells then were inoculated into 5 mL of the respective fresh SDM71 medium to give an initial OD600 = 0.1. The cells were incubated at 30 °C on a rotary shaker at 150 rpm, then the yeast cells were observed using a fluorescence microscope, diluted with 1 ml of sheath fluid, and fluorescence was analyzed by flow cytometry.
Data were analyzed using KaleidaGraph4.0. Statistical significance of the differences between more than two groups was calculated by one-way ANOVA, followed by Tukey’s post test. Z’ factor, a commonly used parameter reflecting the robustness and the quality of assays, was determined as follows: Z’ factor = 1 ‒ 3(SDpositive control + SDnegative control)/ (meanpositive control ‒ meannegative control), where “SD” represents standard deviation of multiple replicates of an assay.

[2] = cited from earlier work
Text: Studies on the structure-activity relationship of neurotensin verified that positive charges at positions 8 and 9 are important but not prerequisite for its bioactivity. There is charge complementarity between NTS8–13 and its binding pocket: the positively- ...

[3] = system: human neurotensin receptor subtype-1 (hNTSR1); experiment: Quantitative digital image analysis of ZsGreen fluorescence (microscopy, ImageJ), hNTSR1; assay type: cell-based; conditions: strain IMFD-72ZsD, pGK421-NTSR1; NTS at several concentrations, 4 h; 100 cells, n = 4
Procedure: as §1
(§3) GPCR signaling assays with exogenously added ligands basically followed previous procedures. In brief, to assay signal activation from human GPCRs, yeast strains harboring the pGK421-based plasmids were grown in SD medium (supplemented as needed) at 30 °C overnight, then the cells then were inoculated into 5 mL of the respective fresh SD medium to give an initial OD600 = 0.03. The cells were incubated at 30 °C on a rotary shaker at 150 rpm for up to 18 h and harvested, washed, and resuspended in water to give an OD600 = 10. […] The plates were incubated at 30 °C with shaking (150 rpm) for 4 h, then the yeast cells were observed using a fluorescence microscope, diluted with 1 mL of sheath fluid, and fluorescence was analyzed by flow cytometry.

[4] = system: human neurotensin receptor subtype-1 (hNTSR1); experiment: GPCR signaling assay with exogenously added ligand, hNTSR1; assay type: cell-based; conditions: 4 h; for fold higher fluorescence than in the absence of agonist / fold increase in fluorescence intensity in response to agonist stimulation: pGK421-NTSR1, with vs without 10 μM NTS, 30 °C, pH 7.1 SD medium, flow cytometry, mean of 10,000 cells, n = 3
Procedure: as §1, §2, §3

[5] = system: human somatostatin receptor subtype-2 (hSSTR2); experiment: GPCR signaling assay with exogenously added ligand, hSSTR2; assay type: cell-based; conditions: 4 h; for fold higher fluorescence on agonist addition / fold increase in fluorescence intensity on agonist stimulation: pGK421-SSTR2, with vs without 10 μM SST, 30 °C, pH 7.1 SD medium, flow cytometry, mean of 10,000 cells, n = 3
Procedure: as §1, §2, §3

[6] = system: human somatostatin receptor subtype-5 (hSSTR5); experiment: GPCR signaling assay with exogenously added ligand, hSSTR5 (FIG1-promoter GFP reporter yeast); assay type: cell-based; conditions: 4 h; for fluorescence microscopy observation: 10 μM SST; for fold increase in fluorescence on agonist addition / fold increase in fluorescence intensity in response to agonist stimulation: pGK421-SSTR5, with vs without 10 μM SST, 30 °C, pH 7.1 SD medium, flow cytometry, mean of 10,000 cells, n = 3
Procedure: as §1, §2, §3

[7] = strain IMFD-70ZsD (ZsGreen, Gpa1p)
[8] = strain IMFD-72ZsD (ZsGreen, Gi3tp)

## KIPYIL [NMN, NMN–Flag–Flo42 in pGK426; membrane-tethered neuromedin N]
[1]
  fold increase in fluorescence intensity compared with α-factor: > 1.5 fold
  rank order of ZsGreen fluorescence: NTS8–13 > NTS > NMN > α-factor

## KIPYIL [neuromedin N, neurotensin-like peptide, KIPYIL (cited from literature)]
[2]
  biological activity: very weak biological activity

## RRPYIL [NTS8–13, NTS 8-13 -Flag–Flo42 in pGK426; membrane-tethered NTS8–13]
[1]
  fold increase in fluorescence intensity compared with α-factor: greater than 35 fold
  rank order of ZsGreen fluorescence: NTS8–13 > NTS > NMN > α-factor

## RRPYIL [Neurotensin-(8-13), pharmacophore of neurotensin, RRPYIL (cited from literature)]
[2]
  potency and efficacy versus full-length NTS: higher potency and efficacy than full-length NTS

## neurotensin [NTS]
[3]
  digital intensity of green fluorescence (IntDen), concentration dependence: varied in a NTS-dependent manner
[4]; hNTSR1-expressing IMFD-72ZsD, 10 μM NTS, 40× and 100× objective
  fluorescence microscopy observation: clearly exhibited changes in green fluorescence and morphology
[4]; strain IMFD-70 (EGFP, Gpa1p)
  fold higher fluorescence than in the absence of agonist: 1.3 fold
[4]; [7]
  fold increase in fluorescence intensity in response to agonist stimulation: 7.9 fold
[4]; strain IMFD-72 (EGFP, Gi3tp)
  fold higher fluorescence than in the absence of agonist: 2.3 fold
[4]; [8]
  fold increase in fluorescence intensity in response to agonist stimulation: 45 fold

## somatostatin [SST]
[5]; hSSTR2-expressing IMFD-72ZsD, 10 μM SST, 40× and 100× objective
  fluorescence microscopy observation: clearly exhibited changes in green fluorescence and morphology
[5]; strain IMFD-70 (EGFP, Gpa1p)
  fold higher fluorescence on agonist addition: 3.0 fold
[5]; [7]
  fold increase in fluorescence intensity on agonist stimulation: 36 fold
[5]; strain IMFD-72 (EGFP, Gi3tp)
  fold higher fluorescence on agonist addition: 4.6 fold
[5]; [8]
  fold increase in fluorescence intensity on agonist stimulation: 81 fold
[6]; hSSTR5-expressing IMFD-70ZsD and IMFD-72ZsD (ZsGreen), 40× and 100× objective
  fluorescence microscopy observation: exhibited changes in green fluorescence and morphology
[6]; hSSTR5-expressing IMFD-70 and IMFD-72 (EGFP)
  fluorescence microscopy observation: the fluorescence was too weak to allow observation with a fluorescence microscope
[6]; strain IMFD-70 (EGFP, Gpa1p)
  fold increase in fluorescence on agonist addition: 3.9 fold
[6]; strain IMFD-70Zs (single ZsGreen substitution, Gpa1p)
  fold increase in fluorescence intensity in response to agonist stimulation: 33 fold
[6]; strain IMFD-70ZsD (double ZsGreen substitution, Gpa1p)
  fold increase in fluorescence intensity in response to agonist stimulation: 83 fold
[6]; strain IMFD-72 (EGFP, Gi3tp)
  fold increase in fluorescence on agonist addition: 5.6 fold
[6]; strain IMFD-72Zs (single ZsGreen substitution, Gi3tp)
  fold increase in fluorescence intensity in response to agonist stimulation: 65 fold
[6]; strain IMFD-72ZsD (double ZsGreen substitution, Gi3tp)
  fold increase in fluorescence intensity in response to agonist stimulation: 104 fold
